Laboratory results: publication PMC5834492, “Antimycobacterial drug discovery using Mycobacteria-infected amoebae identifies anti-infectives and new molecular targets” (Scientific Reports, 2018)

System: BV2 cells
Details: not given

| SMILES | Growth inhibition / Cytotoxicity assays: BV2 cells |
| --- | --- |
| N=C(N)c1ccc(CCN2CCC(c3nc(COCC(F)(F)F)c(-c4ccc(F)cc4)o3)CC2)cc1.O=C(O)C(F)(F)F.O=C(O)C(F)(F)F [GI247341A] | False |
| Cc1cccc(-c2nc(Nc3ccncn3)c3sccc3n2)n1 [GSK153890A] | False |
| CC(C)(C)C(=O)CC1(O)Oc2ccccc2N=C1C=C(O)C(C)(C)C (stereo not drawn) [GSK262906A] | False |
| c1ccc(-c2nnc(Sc3ccnc(N4CCN(c5ccncc5)CC4)n3)n2CCCN2CCOCC2)nc1 [GSK547543A] | False |
| CCC(Sc1nc2ccccc2o1)C(=O)Nc1nccs1 (stereo not drawn) [GSK829969A] | True |
| CN(C)S(=O)(=O)c1ccc(C(=O)Nc2nnc(-c3ccc(Cl)s3)o2)cc1 [GSK991960A] | False |
| O=C(NC1=NCCS1)c1sc2cc(F)ccc2c1Cl [GSK1107112A] | False |
| O=C(c1cnn(C(=O)c2ccco2)c1)c1cc(F)ccc1O [GSK1310678A] | False |
| O=C(OCc1c(F)cccc1Cl)c1ccc(-n2ncc(Cl)c(Cl)c2=O)cc1 [GSK1826825A] | False |

System: M. marinum GFP
Format: cell-based, Mycobacterium marinum
Details: 10 µM; antibiotic assay

| SMILES | M. marinum GFP normalised growth, control=1.00, mean |
| --- | --- |
| Cc1ccccc1CN1CCC(O)(c2ccc(Cl)c(C(F)(F)F)c2)CC1 [GSK1985270A] | 0.09 |

System: D. discoideum GFP-ABD
Details: not given

| SMILES | Growth inhibition / Cytotoxicity assays: D. discoideum GFP-ABD |
| --- | --- |
| N=C(N)c1ccc(CCN2CCC(c3nc(COCC(F)(F)F)c(-c4ccc(F)cc4)o3)CC2)cc1.O=C(O)C(F)(F)F.O=C(O)C(F)(F)F [GI247341A] | 0.77 |
| Cc1cccc(-c2nc(Nc3ccncn3)c3sccc3n2)n1 [GSK153890A] | 1.05 |
| CC(C)(C)C(=O)CC1(O)Oc2ccccc2N=C1C=C(O)C(C)(C)C (stereo not drawn) [GSK262906A] | 0.89 |
| c1ccc(-c2nnc(Sc3ccnc(N4CCN(c5ccncc5)CC4)n3)n2CCCN2CCOCC2)nc1 [GSK547543A] | 0.87 |
| CCC(Sc1nc2ccccc2o1)C(=O)Nc1nccs1 (stereo not drawn) [GSK829969A] | 0.94 |
| CN(C)S(=O)(=O)c1ccc(C(=O)Nc2nnc(-c3ccc(Cl)s3)o2)cc1 [GSK991960A] | 0.90 |
| O=C(NC1=NCCS1)c1sc2cc(F)ccc2c1Cl [GSK1107112A] | 0.0367 |
| O=C(c1cnn(C(=O)c2ccco2)c1)c1cc(F)ccc1O [GSK1310678A] | 1.12 |
| O=C(OCc1c(F)cccc1Cl)c1ccc(-n2ncc(Cl)c(Cl)c2=O)cc1 [GSK1826825A] | 1.04 |

Same assay, conditions: 10 µM

| SMILES | D. discoideum GFP-ABD normalised growth, control=1.00, mean |
| --- | --- |
| Cc1ccccc1CN1CCC(O)(c2ccc(Cl)c(C(F)(F)F)c2)CC1 [GSK1985270A] | 0.99 |

System: Mtb H37Rv
Design: method as in Sorrentino et al, 2015
Details: ref Sorrentino et al, 2015; cited from earlier work

| SMILES | Extracellular MIC90 |
| --- | --- |
| Cc1ccccc1CN1CCC(O)(c2ccc(Cl)c(C(F)(F)F)c2)CC1 [GSK1985270A] | 4.2 µM |

System: M. marinum in BV2 microglial cells
Format: cell-based, Mycobacterium marinum
Details: not given

| SMILES | Intracellular infection assays: BV2 / M. marinum | IC50 |
| --- | --- | --- |
| N=C(N)c1ccc(CCN2CCC(c3nc(COCC(F)(F)F)c(-c4ccc(F)cc4)o3)CC2)cc1.O=C(O)C(F)(F)F.O=C(O)C(F)(F)F [GI247341A] | 1.21 |  |
| Cc1cccc(-c2nc(Nc3ccncn3)c3sccc3n2)n1 [GSK153890A] | 1.17 |  |
| CC(C)(C)C(=O)CC1(O)Oc2ccccc2N=C1C=C(O)C(C)(C)C (stereo not drawn) [GSK262906A] | 1.68 |  |
| c1ccc(-c2nnc(Sc3ccnc(N4CCN(c5ccncc5)CC4)n3)n2CCCN2CCOCC2)nc1 [GSK547543A] | 1.22 |  |
| CCC(Sc1nc2ccccc2o1)C(=O)Nc1nccs1 (stereo not drawn) [GSK829969A] | 1.56 |  |
| CN(C)S(=O)(=O)c1ccc(C(=O)Nc2nnc(-c3ccc(Cl)s3)o2)cc1 [GSK991960A] | 1.20 |  |
| O=C(NC1=NCCS1)c1sc2cc(F)ccc2c1Cl [GSK1107112A] | 1.29 |  |
| O=C(c1cnn(C(=O)c2ccco2)c1)c1cc(F)ccc1O [GSK1310678A] | 1.17 |  |
| O=C(OCc1c(F)cccc1Cl)c1ccc(-n2ncc(Cl)c(Cl)c2=O)cc1 [GSK1826825A] | 1.71 |  |
| Cc1ccccc1CN1CCC(O)(c2ccc(Cl)c(C(F)(F)F)c2)CC1 [GSK1985270A] |  | 4.88 µM |

Same assay, conditions: 10 µM

| SMILES | BV2 / M. marinum normalised growth, control=1.00, mean | anti-infective properties in microglial cell (BV2) infection assay | hit in BV2/M. marinum assay True/False |
| --- | --- | --- | --- |
| Cc1ccccc1CN1CCC(O)(c2ccc(Cl)c(C(F)(F)F)c2)CC1 [GSK1985270A] | 0.45 | strong anti-infective properties | TRUE |

System: M. marinum luxCDABE
Format: cell-based, Mycobacterium marinum
Details: not given

| SMILES | Antibiotic assays: M. marinum luxCDABE |
| --- | --- |
| N=C(N)c1ccc(CCN2CCC(c3nc(COCC(F)(F)F)c(-c4ccc(F)cc4)o3)CC2)cc1.O=C(O)C(F)(F)F.O=C(O)C(F)(F)F [GI247341A] | 0.00 |
| Cc1cccc(-c2nc(Nc3ccncn3)c3sccc3n2)n1 [GSK153890A] | 0.00 |
| CC(C)(C)C(=O)CC1(O)Oc2ccccc2N=C1C=C(O)C(C)(C)C (stereo not drawn) [GSK262906A] | 1.00 |
| c1ccc(-c2nnc(Sc3ccnc(N4CCN(c5ccncc5)CC4)n3)n2CCCN2CCOCC2)nc1 [GSK547543A] | 0.00 |
| CCC(Sc1nc2ccccc2o1)C(=O)Nc1nccs1 (stereo not drawn) [GSK829969A] | 0.00 |
| CN(C)S(=O)(=O)c1ccc(C(=O)Nc2nnc(-c3ccc(Cl)s3)o2)cc1 [GSK991960A] | 0.15 |
| O=C(NC1=NCCS1)c1sc2cc(F)ccc2c1Cl [GSK1107112A] | 0.10 |
| O=C(c1cnn(C(=O)c2ccco2)c1)c1cc(F)ccc1O [GSK1310678A] | 0.00 |
| O=C(OCc1c(F)cccc1Cl)c1ccc(-n2ncc(Cl)c(Cl)c2=O)cc1 [GSK1826825A] | 0.13 |

Same assay, conditions: 10 µM

| SMILES | M. marinum luxCDABE normalised growth, control = 1.00, mean | M. marinum luxCDABE normalised growth, control=1.00, mean |
| --- | --- | --- |
| Cc1ccccc1CN1CCC(O)(c2ccc(Cl)c(C(F)(F)F)c2)CC1 [GSK1985270A] | 0,00 | 0.00 |

System: M. marinum in A. castellanii
Format: cell-based, Mycobacterium marinum
Details: not given

| SMILES | Intracellular infection assays: A. castellanii / M. marinum |
| --- | --- |
| N=C(N)c1ccc(CCN2CCC(c3nc(COCC(F)(F)F)c(-c4ccc(F)cc4)o3)CC2)cc1.O=C(O)C(F)(F)F.O=C(O)C(F)(F)F [GI247341A] | 1.18 |
| Cc1cccc(-c2nc(Nc3ccncn3)c3sccc3n2)n1 [GSK153890A] | 1.21 |
| CC(C)(C)C(=O)CC1(O)Oc2ccccc2N=C1C=C(O)C(C)(C)C (stereo not drawn) [GSK262906A] | 1.04 |
| c1ccc(-c2nnc(Sc3ccnc(N4CCN(c5ccncc5)CC4)n3)n2CCCN2CCOCC2)nc1 [GSK547543A] | 0.99 |
| CCC(Sc1nc2ccccc2o1)C(=O)Nc1nccs1 (stereo not drawn) [GSK829969A] | 1.58 |
| CN(C)S(=O)(=O)c1ccc(C(=O)Nc2nnc(-c3ccc(Cl)s3)o2)cc1 [GSK991960A] | 1.06 |
| O=C(NC1=NCCS1)c1sc2cc(F)ccc2c1Cl [GSK1107112A] | 0.90 |
| O=C(c1cnn(C(=O)c2ccco2)c1)c1cc(F)ccc1O [GSK1310678A] | 0.98 |
| O=C(OCc1c(F)cccc1Cl)c1ccc(-n2ncc(Cl)c(Cl)c2=O)cc1 [GSK1826825A] | 0.95 |

Same assay, conditions: 10 µM

| SMILES | A. castellanii / M. marinum normalised growth, control=1.00, mean | Hits A. castellanii/M. marinum assay True/False | anti-infective properties in A. castellanii infection assay |
| --- | --- | --- | --- |
| Cc1ccccc1CN1CCC(O)(c2ccc(Cl)c(C(F)(F)F)c2)CC1 [GSK1985270A] | -0.06 | TRUE | strong anti-infective properties |

System: Mtb H37Rv in THP-1
Design: method as in Sorrentino et al, 2015
Details: Mtb H37Rv-infected THP1 cells; ref Sorrentino et al, 2015; cited from earlier work

| SMILES | Intracelullar MIC90 in THP-1 |
| --- | --- |
| Cc1ccccc1CN1CCC(O)(c2ccc(Cl)c(C(F)(F)F)c2)CC1 [GSK1985270A] | 0.21 µM |

Same assay, conditions: THP1 / Mtb H37Rv infection assay; ref Sorrentino et al, 2015; cited from earlier work

| SMILES | Intracelullar MIC90 in THP-1 |
| --- | --- |
| Cc1ccccc1CN1CCC(O)(c2ccc(Cl)c(C(F)(F)F)c2)CC1 [GSK1985270A] | 0.21 µM |

Same assay, conditions: ratio; ref Sorrentino et al, 2015; cited from earlier work

| SMILES | Extracellular MIC90/ Inracellular MIC90 |
| --- | --- |
| Cc1ccccc1CN1CCC(O)(c2ccc(Cl)c(C(F)(F)F)c2)CC1 [GSK1985270A] | 20 |
